Measured values as given in US12447119B2, “Oral care composition” (SUNSTAR AMERICAS, INC., priority 2019, dated 2025).

Test: Solubility of surfactant in an oral care composition (statement in Experiment 4)
Type: physicochemical
Conditions: compared with a monoglyceride and diglyceride mixture
From the text: The results of Experiment 4 are shown in FIG. 5 (represented by Table 6 below), which measures the toothpaste concentration that causes 50% cell hemolysis. […] Glyceryl monostearate is harder to dissolve in an oral care composition than monoglyceride and digylceride mixtures.

SMILES: CCCCCCCCCCCCCCCCCC(=O)OCC(O)CO (stereo not shown) [Glyceryl monostearate, glyceryl monostearate]
- solubility of the surfactant in an oral care composition: less soluble than a monoglyceride and diglyceride mixture
